Measurements reported in article PMC6414696 (mBio, 2019).
In brackets after ≈: the same amount, converted by molar mass. Read-outs that look alike come from different tables or passages of the source.

Columns and labels:
[1] = target: OXA-66 β-lactamase (Acinetobacter baumannii, UniProt Q58XD2); assay: β-Lactamase steady-state kinetic analysis, OXA-66; format: biochemical, A. baumannii; conditions: OXA-66; data not shown
[2] = system: A. baumannii isolates; conditions: panel of A. baumannii isolates in a previous study; cited from earlier work
[3] = system: A. baumannii ARC5955; conditions: A. baumannii ARC5955 carrying blaTEM-1, blaADC-82, blaOXA-23, blaOXA-66; cited from earlier work
[4] = system: A. baumannii clinical isolates; assay: microbe, parasite or virus in culture; format: cell-based, Acinetobacter baumannii; conditions: for MIC: Acinetobacter baumannii
[5] = system: A. baumannii ARC5955; assay: Neutropenic murine thigh infection model; format: in vivo; conditions: thigh tissue, CD-1 mice, 24 h after initiation of therapy, 75 mg/kg SC/q3h; for Change in log10 CFU/g: 75 mg/kg
[6] = system: A. baumannii (ATCC 17978); format: cell-based, Acinetobacter baumannii; conditions: ETX2514 at 4 mg/liter in combination
[7] = system: A. nosocomialis (M2); format: cell-based, Acinetobacter nosocomialis; conditions: ETX2514 at 4 mg/liter in combination

Chain of OXA-66 β-lactamase (Q58XD2 entry or part of it): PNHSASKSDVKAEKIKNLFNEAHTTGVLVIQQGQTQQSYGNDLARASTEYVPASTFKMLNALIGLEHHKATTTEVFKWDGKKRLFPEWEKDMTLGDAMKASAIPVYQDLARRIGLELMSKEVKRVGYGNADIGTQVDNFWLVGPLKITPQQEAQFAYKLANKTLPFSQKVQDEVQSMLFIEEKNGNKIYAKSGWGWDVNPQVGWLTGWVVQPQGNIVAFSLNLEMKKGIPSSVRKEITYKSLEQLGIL

For `CC1(C)[C@H](C(=O)O)N2C(=O)C[C@H]2S1(=O)=O` [Sulbactam], the “substrate quality for the enzyme” value [1] is listed as “very poor substrate”, the MIC90 [2] is listed as 64 µg/mL (≈ 274 µM) and the MIC [3] is listed as 64 µg/mL (≈ 274 µM). The MIC90 ([4]; 72 WRAMC A. baumannii isolates, ETX2514 at 4 mg/liter in combination) was 32 µg/mL, the “isolates resistant (MIC ≥ 16 mg/liter)” value ([4]; 72 WRAMC isolates (34/72)) was 47% and the MIC ([4]; strain AB001, ETX2514 at 4 mg/liter in combination) was 16 µg/mL. It also gave an MIC ([4]; strain AB002, ETX2514 at 4 mg/liter in combination) of 8 µg/mL, an MIC ([4]; strain AB003, ETX2514 at 4 mg/liter in combination) of 8 µg/mL and an MIC ([4]; strain AB004, ETX2514 at 4 mg/liter in combination) of 4 µg/mL. The MIC ([4]; strain AB005, ETX2514 at 4 mg/liter in combination) was 4 µg/mL, the MIC ([4]; strain AB006, ETX2514 at 4 mg/liter in combination) was 4 µg/mL and the MIC ([4]; strain AB007, ETX2514 at 4 mg/liter in combination) was 4 µg/mL. For the same compound, the MIC ([4]; strain AB008, ETX2514 at 4 mg/liter in combination) was 4 µg/mL, the MIC ([4]; strain AB009, ETX2514 at 4 mg/liter in combination) was 4 µg/mL and the MIC ([4]; strain AB010, ETX2514 at 4 mg/liter in combination) was 4 µg/mL. It also gave an MIC ([4]; strain AB011, ETX2514 at 4 mg/liter in combination) of 8 µg/mL, an MIC ([4]; strain AB012, ETX2514 at 4 mg/liter in combination) of 4 µg/mL and an MIC ([4]; strain AB013, ETX2514 at 4 mg/liter in combination) of 4 µg/mL. For the same compound, the MIC ([4]; strain AB014, ETX2514 at 4 mg/liter in combination) was 4 µg/mL, the MIC ([4]; strain AB015, ETX2514 at 4 mg/liter in combination) was 4 µg/mL and the MIC ([4]; strain AB016, ETX2514 at 4 mg/liter in combination) was 4 µg/mL. For the same compound, the MIC ([4]; strain AB017, ETX2514 at 4 mg/liter in combination) was 32 µg/mL, the MIC ([4]; strain AB018, ETX2514 at 4 mg/liter in combination) was 64 µg/mL and the MIC ([4]; strain AB019, ETX2514 at 4 mg/liter in combination) was 16 µg/mL. For the same compound, the MIC ([4]; strain AB020, ETX2514 at 4 mg/liter in combination) was 16 µg/mL, the MIC ([4]; strain AB021, ETX2514 at 4 mg/liter in combination) was 16 µg/mL and the MIC ([4]; strain AB022, ETX2514 at 4 mg/liter in combination) was 16 µg/mL. For the same compound, the MIC ([4]; strain AB023, ETX2514 at 4 mg/liter in combination) was 16 µg/mL, the MIC ([4]; strain AB024, ETX2514 at 4 mg/liter in combination) was 16 µg/mL and the MIC ([4]; strain AB025, ETX2514 at 4 mg/liter in combination) was 16 µg/mL. For the same compound, the MIC ([4]; strain AB026, ETX2514 at 4 mg/liter in combination) was 16 µg/mL, the MIC ([4]; strain AB027, ETX2514 at 4 mg/liter in combination) was 16 µg/mL and the MIC ([4]; strain AB028, ETX2514 at 4 mg/liter in combination) was 16 µg/mL. For the same compound, the MIC ([4]; strain AB029, ETX2514 at 4 mg/liter in combination) was 16 µg/mL, the MIC ([4]; strain AB030, ETX2514 at 4 mg/liter in combination) was 16 µg/mL and the MIC ([4]; strain AB031, ETX2514 at 4 mg/liter in combination) was 16 µg/mL. For the same compound, the MIC ([4]; strain AB032, ETX2514 at 4 mg/liter in combination) was 16 µg/mL, the MIC ([4]; strain AB033, ETX2514 at 4 mg/liter in combination) was 64 µg/mL and the MIC ([4]; strain AB034, ETX2514 at 4 mg/liter in combination) was 16 µg/mL. The MIC ([4]; strain AB035, ETX2514 at 4 mg/liter in combination) was 16 µg/mL, the MIC ([4]; strain AB036, ETX2514 at 4 mg/liter in combination) was 16 µg/mL and the MIC ([4]; strain AB037, ETX2514 at 4 mg/liter in combination) was 64 µg/mL. The MIC ([4]; strain AB038, ETX2514 at 4 mg/liter in combination) was 16 µg/mL, the MIC ([4]; strain AB039, ETX2514 at 4 mg/liter in combination) was 4 µg/mL and the MIC ([4]; strain AB040, ETX2514 at 4 mg/liter in combination) was 32 µg/mL. It also gave an MIC ([4]; strain AB041, ETX2514 at 4 mg/liter in combination) of 16 µg/mL, an MIC ([4]; strain AB042, ETX2514 at 4 mg/liter in combination) of 4 µg/mL and an MIC ([4]; strain AB043, ETX2514 at 4 mg/liter in combination) of 4 µg/mL. The MIC ([4]; strain AB044, ETX2514 at 4 mg/liter in combination) was 4 µg/mL, the MIC ([4]; strain AB045, ETX2514 at 4 mg/liter in combination) was 2 µg/mL and the MIC ([4]; strain AB046, ETX2514 at 4 mg/liter in combination) was 4 µg/mL. It also gave an MIC ([4]; strain AB047, ETX2514 at 4 mg/liter in combination) of 4 µg/mL, an MIC ([4]; strain AB048, ETX2514 at 4 mg/liter in combination) of 4 µg/mL and an MIC ([4]; strain AB049, ETX2514 at 4 mg/liter in combination) of 4 µg/mL. For the same compound, the MIC ([4]; strain AB050, ETX2514 at 4 mg/liter in combination) was 4 µg/mL, the MIC ([4]; strain AB051, ETX2514 at 4 mg/liter in combination) was 2 µg/mL and the MIC ([4]; strain AB052, ETX2514 at 4 mg/liter in combination) was 64 µg/mL. For the same compound, the MIC ([4]; strain AB053, ETX2514 at 4 mg/liter in combination) was 32 µg/mL, the MIC ([4]; strain AB054, ETX2514 at 4 mg/liter in combination) was 64 µg/mL and the MIC ([4]; strain AB055, ETX2514 at 4 mg/liter in combination) was 16 µg/mL. It also gave an MIC ([4]; strain AB056, ETX2514 at 4 mg/liter in combination) of 8 µg/mL, an MIC ([4]; strain AB057, ETX2514 at 4 mg/liter in combination) of 16 µg/mL and an MIC ([4]; strain AB058, ETX2514 at 4 mg/liter in combination) of 32 µg/mL. It also gave an MIC ([4]; strain AB059, ETX2514 at 4 mg/liter in combination) of 32 µg/mL, an MIC ([4]; strain AB060, ETX2514 at 4 mg/liter in combination) of 8 µg/mL and an MIC ([4]; strain AB061, ETX2514 at 4 mg/liter in combination) of 8 µg/mL. It also gave an MIC ([4]; strain AB062, ETX2514 at 4 mg/liter in combination) of 8 µg/mL, an MIC ([4]; strain AB063, ETX2514 at 4 mg/liter in combination) of 32 µg/mL and an MIC ([4]; strain AB064, ETX2514 at 4 mg/liter in combination) of 8 µg/mL. It also gave an MIC ([4]; strain AB065, ETX2514 at 4 mg/liter in combination) of 8 µg/mL, an MIC ([4]; strain AB066, ETX2514 at 4 mg/liter in combination) of 4 µg/mL and an MIC ([4]; strain AB067, ETX2514 at 4 mg/liter in combination) of 4 µg/mL. The MIC ([4]; strain AB068, ETX2514 at 4 mg/liter in combination) was 4 µg/mL, the MIC ([4]; strain AB069, ETX2514 at 4 mg/liter in combination) was 4 µg/mL and the MIC ([4]; strain AB070, ETX2514 at 4 mg/liter in combination) was 32 µg/mL. It also gave an MIC ([4]; strain AB071, ETX2514 at 4 mg/liter in combination) of 8 µg/mL, an MIC ([4]; strain AB072, ETX2514 at 4 mg/liter in combination) of 4 µg/mL and an MIC ([4]; strain CCF 1MR, carbapenem resistant, ETX2514 at 4 mg/liter in combination) of 32 µg/mL. It also gave an MIC ([4]; strain CCF 2MR, carbapenem resistant, ETX2514 at 4 mg/liter in combination) of 16 µg/mL, an MIC ([4]; strain CCF 3MR, carbapenem resistant, ETX2514 at 4 mg/liter in combination) of 4 µg/mL and an MIC ([4]; strain CCF 4MR, carbapenem resistant, ETX2514 at 4 mg/liter in combination) of 16 µg/mL. For the same compound, the MIC ([4]; strain CCF 5MR, carbapenem resistant, ETX2514 at 4 mg/liter in combination) was 16 µg/mL, the MIC ([4]; strain CCF 6MR, carbapenem resistant, ETX2514 at 4 mg/liter in combination) was 16 µg/mL and the MIC ([4]; strain CCF 7MR, carbapenem resistant, ETX2514 at 4 mg/liter in combination) was 32 µg/mL. It also gave an MIC ([4]; strain CCF 8MR, carbapenem resistant, ETX2514 at 4 mg/liter in combination) of 8 µg/mL, an MIC ([4]; strain UH AB202, carbapenem resistant, ETX2514 at 4 mg/liter in combination) of 16 µg/mL and an MIC ([4]; strain UH AB461, carbapenem resistant, ETX2514 at 4 mg/liter in combination) of 8 µg/mL. For the same compound, the MIC ([4]; strain UH AB477, carbapenem resistant, ETX2514 at 4 mg/liter in combination) was 16 µg/mL, the MIC ([4]; strain UH AB487, carbapenem resistant, ETX2514 at 4 mg/liter in combination) was 16 µg/mL and the MIC ([4]; strain UH AB489, carbapenem resistant, ETX2514 at 4 mg/liter in combination) was 16 µg/mL. The MIC ([4]; strain UH AB490, carbapenem resistant, ETX2514 at 4 mg/liter in combination) was 16 µg/mL, the MIC ([4]; strain UH AB491, carbapenem resistant, ETX2514 at 4 mg/liter in combination) was 16 µg/mL and the MIC ([4]; strain UH AB636, carbapenem resistant, ETX2514 at 4 mg/liter in combination) was 16 µg/mL. The MIC ([4]; strain UH AB660, carbapenem resistant, ETX2514 at 4 mg/liter in combination) was 16 µg/mL, the MIC ([4]; strain UH AB667, carbapenem resistant, ETX2514 at 4 mg/liter in combination) was 32 µg/mL and the MIC ([4]; strain VA-432, carbapenem resistant, ETX2514 at 4 mg/liter in combination) was 16 µg/mL. For the same compound, the MIC ([4]; strain VA-433, carbapenem resistant, ETX2514 at 4 mg/liter in combination) was 16 µg/mL, the MIC ([4]; strain VA-434, carbapenem resistant, ETX2514 at 4 mg/liter in combination) was 16 µg/mL and the MIC ([4]; strain VA-435, carbapenem resistant, ETX2514 at 4 mg/liter in combination) was 16 µg/mL. It also gave an MIC ([4]; strain VA-436, carbapenem resistant, ETX2514 at 4 mg/liter in combination) of 16 µg/mL, an MIC ([4]; strain VA-437, carbapenem resistant, ETX2514 at 4 mg/liter in combination) of 8 µg/mL and an MIC ([4]; strain VA-438, carbapenem resistant, ETX2514 at 4 mg/liter in combination) of 8 µg/mL. For the same compound, the MIC ([4]; strain VA-505, carbapenem resistant, ETX2514 at 4 mg/liter in combination) was 8 µg/mL, the “Log10 CFU/g” value [5] was 9.0 log10 CFU/g and the “Change in log10 CFU/g” value [5] was 2.5 log10 CFU/g. For the same compound, the “Change in log10 CFU/g” value ([5]; listed as sulbactam) was > 2 log10 CFU/g, the MIC ([6]; ATCC 17978 ΔadeB/ΔadeJ) was 1 µg/mL and the MIC ([6]; ATCC 17978 ΔadeB) was 1 µg/mL. The MIC ([6]; ATCC 17978 ΔadeJ) was 1 µg/mL, the MIC ([7]; M2 WT) was 2 µg/mL and the MIC ([7]; M2 ΔadeB/ΔadeJ) was 2 µg/mL. The MIC ([7]; M2 ΔadeJ) was 2 µg/mL.
